The structures appear in SMILES notation.

Data set [1] concerns the target T1, CYP2C9 (Homo sapiens, UniProt P11712). Description: Inhibition of human recombinant CYP2C9 at 1 uM by fluorimetric assay. It counts as ADME.
Data set [2] deals with T2, CYP2C19 (Homo sapiens, UniProt P33261). Description: Inhibition of human recombinant CYP2C19 at 1 uM by fluorimetric assay. The class given is ADME.
The target of data set [3] is T3, CYP1A2 (Homo sapiens, UniProt P05177).
T3 sequence (P05177 whole entry): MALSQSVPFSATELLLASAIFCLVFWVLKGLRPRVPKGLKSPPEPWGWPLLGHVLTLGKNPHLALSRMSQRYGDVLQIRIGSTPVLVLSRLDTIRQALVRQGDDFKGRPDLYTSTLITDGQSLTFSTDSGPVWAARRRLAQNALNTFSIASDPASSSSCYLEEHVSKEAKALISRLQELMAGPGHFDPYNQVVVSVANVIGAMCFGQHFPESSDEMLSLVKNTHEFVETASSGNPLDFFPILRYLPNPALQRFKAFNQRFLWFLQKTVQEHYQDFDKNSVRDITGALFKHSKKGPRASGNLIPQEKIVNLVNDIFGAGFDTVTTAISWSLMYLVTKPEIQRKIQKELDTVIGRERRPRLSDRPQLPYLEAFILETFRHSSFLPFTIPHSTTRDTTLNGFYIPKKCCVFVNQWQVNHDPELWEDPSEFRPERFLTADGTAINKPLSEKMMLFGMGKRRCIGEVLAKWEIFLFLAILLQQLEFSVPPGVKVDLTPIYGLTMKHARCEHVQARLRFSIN
In words: Inhibition of human recombinant CYP1A2 at 1 uM by fluorimetric assay. The class given is ADME.

In data set [4] the target is T4, CYP2D6 (Homo sapiens, UniProt P10635). Description: Inhibition of human recombinant CYP2D6 at 1 uM by fluorimetric assay. It counts as ADME.
T4 sequence (P10635 whole entry): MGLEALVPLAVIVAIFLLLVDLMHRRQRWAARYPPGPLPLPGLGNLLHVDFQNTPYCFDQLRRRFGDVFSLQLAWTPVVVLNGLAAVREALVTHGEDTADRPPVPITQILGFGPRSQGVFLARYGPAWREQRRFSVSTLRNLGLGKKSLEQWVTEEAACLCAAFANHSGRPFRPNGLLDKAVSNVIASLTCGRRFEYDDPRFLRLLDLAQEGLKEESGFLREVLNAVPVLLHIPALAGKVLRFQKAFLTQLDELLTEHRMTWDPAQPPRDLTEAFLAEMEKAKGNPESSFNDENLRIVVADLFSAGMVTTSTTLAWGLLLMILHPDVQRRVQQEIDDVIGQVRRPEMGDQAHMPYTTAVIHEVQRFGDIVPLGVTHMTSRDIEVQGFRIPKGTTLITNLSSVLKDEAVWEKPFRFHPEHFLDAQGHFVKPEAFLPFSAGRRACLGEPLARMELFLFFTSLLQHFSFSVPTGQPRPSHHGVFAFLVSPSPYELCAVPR
For data set [5], the target named is T5, CYP3A4 (Homo sapiens, UniProt P08684). Description: Inhibition of human recombinant CYP3A4 using BFC as substrate at 1 uM by fluorimetric assay. The settings on record: recombinant CYP3A4, probe BFC. The class given is ADME.
T5 sequence (P08684 whole entry): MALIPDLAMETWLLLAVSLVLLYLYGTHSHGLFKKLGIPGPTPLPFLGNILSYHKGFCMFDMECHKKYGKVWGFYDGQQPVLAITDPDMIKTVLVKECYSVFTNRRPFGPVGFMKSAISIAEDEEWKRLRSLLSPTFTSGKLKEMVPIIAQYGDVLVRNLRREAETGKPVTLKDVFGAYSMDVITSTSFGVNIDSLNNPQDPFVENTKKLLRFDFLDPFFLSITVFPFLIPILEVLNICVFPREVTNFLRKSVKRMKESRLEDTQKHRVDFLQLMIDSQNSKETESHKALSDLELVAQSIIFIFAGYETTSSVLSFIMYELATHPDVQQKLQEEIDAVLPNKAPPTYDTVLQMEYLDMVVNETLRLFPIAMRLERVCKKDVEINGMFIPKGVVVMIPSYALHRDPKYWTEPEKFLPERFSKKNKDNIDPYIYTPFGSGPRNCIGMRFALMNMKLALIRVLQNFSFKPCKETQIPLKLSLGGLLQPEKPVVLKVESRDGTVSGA
Data set [6] addresses T5, CYP3A4. Description: Inhibition of human recombinant CYP3A4 using DBF as substrate at 1 uM by fluorimetric assay. The class given is ADME. The settings on record: recombinant CYP3A4, probe DBF.
Data set [7] deals with T6, Orexin/Hypocretin receptor type 1 (Homo sapiens) (UniProt O43613).
T6 sequence (whole entry): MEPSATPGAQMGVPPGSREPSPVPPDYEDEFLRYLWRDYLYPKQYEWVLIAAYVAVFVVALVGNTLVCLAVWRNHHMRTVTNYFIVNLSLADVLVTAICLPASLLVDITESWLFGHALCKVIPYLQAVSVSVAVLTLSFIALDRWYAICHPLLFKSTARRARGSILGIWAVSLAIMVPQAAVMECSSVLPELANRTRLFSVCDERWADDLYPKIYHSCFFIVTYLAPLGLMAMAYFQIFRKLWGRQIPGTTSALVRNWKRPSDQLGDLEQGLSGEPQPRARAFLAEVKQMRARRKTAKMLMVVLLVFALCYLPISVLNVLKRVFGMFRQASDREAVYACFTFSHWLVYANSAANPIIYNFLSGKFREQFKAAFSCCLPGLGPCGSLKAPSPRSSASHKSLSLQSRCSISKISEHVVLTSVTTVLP
In words: Antagonist activity at human recombinant OX1 receptor expressed in CHO cells assessed as OXA-stimulated intracellular calcium mobilization by FLIPR assay. The class given is functional, cell-based.

In data set [8] the target is T7, Orexin receptor type 2 (Homo sapiens) (UniProt O43614).
T7 sequence (whole entry): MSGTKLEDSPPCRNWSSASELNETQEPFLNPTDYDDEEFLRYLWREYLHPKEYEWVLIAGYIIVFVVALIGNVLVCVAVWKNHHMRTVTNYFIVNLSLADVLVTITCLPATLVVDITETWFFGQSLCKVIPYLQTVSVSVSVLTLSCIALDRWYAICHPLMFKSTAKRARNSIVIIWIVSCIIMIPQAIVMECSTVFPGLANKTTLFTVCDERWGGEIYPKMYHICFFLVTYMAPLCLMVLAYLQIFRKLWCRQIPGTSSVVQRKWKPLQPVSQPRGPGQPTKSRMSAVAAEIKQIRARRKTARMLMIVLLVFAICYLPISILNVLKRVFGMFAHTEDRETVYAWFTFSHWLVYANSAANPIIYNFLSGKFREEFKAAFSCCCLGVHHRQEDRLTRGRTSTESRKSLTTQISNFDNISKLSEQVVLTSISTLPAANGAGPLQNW
In words: Antagonist activity at human recombinant OX2 receptor expressed in HEK293 cells assessed as OXB-stimulated intracellular calcium mobilization by FLIPR assay. It counts as functional, cell-based.

Data set [9] concerns the target T2, CYP2C19. Description: Inhibition of human recombinant CYP2C19 at 3 uM by fluorimetric assay. It counts as ADME.
Data set [10] addresses T1, CYP2C9. Description: Inhibition of human recombinant CYP2C9 at 3 uM by fluorimetric assay. The class given is ADME.
Data set [11] deals with T3, CYP1A2. Description: Inhibition of human recombinant CYP1A2 at 3 uM by fluorimetric assay. It counts as ADME.
Data set [12] addresses T5, CYP3A4. In words: Inhibition of human recombinant CYP3A4 using BFC as substrate at 3 uM by fluorimetric assay. The class given is ADME. The following applies: recombinant CYP3A4, probe BFC.
Data set [13] concerns the target T4, CYP2D6. Description: Inhibition of human recombinant CYP2D6 at 3 uM by fluorimetric assay. It counts as ADME.
Data set [14] addresses T5, CYP3A4. In words: Inhibition of human recombinant CYP3A4 using DBF as substrate at 3 uM by fluorimetric assay. The class given is ADME. The settings on record: recombinant CYP3A4, probe DBF.

T1 sequence (P11712 whole entry): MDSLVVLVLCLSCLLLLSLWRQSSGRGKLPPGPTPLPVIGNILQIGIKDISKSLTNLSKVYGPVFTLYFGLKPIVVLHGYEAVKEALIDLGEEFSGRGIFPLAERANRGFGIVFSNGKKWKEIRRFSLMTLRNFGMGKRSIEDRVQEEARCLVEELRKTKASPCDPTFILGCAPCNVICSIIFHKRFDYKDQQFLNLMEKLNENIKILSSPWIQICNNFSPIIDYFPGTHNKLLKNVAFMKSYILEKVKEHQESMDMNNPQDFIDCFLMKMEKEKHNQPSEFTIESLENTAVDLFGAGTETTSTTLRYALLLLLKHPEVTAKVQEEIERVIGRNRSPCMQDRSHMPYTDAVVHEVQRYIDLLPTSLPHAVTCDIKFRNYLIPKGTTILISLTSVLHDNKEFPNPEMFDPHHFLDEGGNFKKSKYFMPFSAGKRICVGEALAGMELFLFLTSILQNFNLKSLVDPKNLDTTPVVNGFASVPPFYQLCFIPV
T2 sequence (P33261 whole entry): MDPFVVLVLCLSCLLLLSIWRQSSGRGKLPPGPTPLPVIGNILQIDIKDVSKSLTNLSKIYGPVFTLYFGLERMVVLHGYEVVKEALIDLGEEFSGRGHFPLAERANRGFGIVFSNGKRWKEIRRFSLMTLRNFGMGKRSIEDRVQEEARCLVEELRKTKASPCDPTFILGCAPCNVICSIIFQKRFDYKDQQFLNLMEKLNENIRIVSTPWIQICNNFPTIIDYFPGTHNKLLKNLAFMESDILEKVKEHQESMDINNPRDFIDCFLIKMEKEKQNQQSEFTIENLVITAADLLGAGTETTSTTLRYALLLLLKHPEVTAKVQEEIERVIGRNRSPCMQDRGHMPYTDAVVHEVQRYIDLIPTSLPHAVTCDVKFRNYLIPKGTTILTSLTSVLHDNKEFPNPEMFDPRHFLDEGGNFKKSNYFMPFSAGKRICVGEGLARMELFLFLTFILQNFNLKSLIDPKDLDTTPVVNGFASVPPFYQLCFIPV

Consider `Cc1cc(C(F)(F)F)cc(NC[C@@H]2CC3(CC3)CN2C(=O)c2nc(C)sc2-c2ccccc2)n1`, for which the inhibition at 1 µM at CYP2C9 [1], at CYP2C19 [2], on CYP1A2 [3], at CYP2D6 [4], at CYP3A4 [5] and on CYP3A4 [6] was below 69% in each case. Also, the pKb in data set [7] is 7.8; in data set [8] it was 8.6.

For the compound `Cc1nc(C(=O)N2CC3(CC3)C[C@H]2CNc2ncc(Cl)cn2)c(-c2ccccc2)s1`, the pKb in data set [7] and in data set [8] was 6.8 throughout.

Consider `Cc1ccc(-c2ncccn2)c(C(=O)N2CC3(CC3)C[C@H]2CNc2cc(C#N)ccn2)n1`, for which the inhibition at 1 µM at CYP2C9 [1], at CYP2C19 [2], on CYP1A2 [3], at CYP2D6 [4], on CYP3A4 [5] and on CYP3A4 [6] was below 17% throughout.

Regarding `Cc1ccc(-c2ncccn2)c(C(=O)N2CCC3(CC3)C[C@H]2CNc2ccc(Cl)cn2)c1`, the pKb was 7.6 in [7] and below 5 in data set [8].

As to `CS(=O)(=O)c1ccc(-c2ccccc2)c(C(=O)N2CC3(CC3)C[C@H]2CNc2ccc(C(F)(F)F)cn2)c1`, the inhibition at 3 µM on CYP2C19 [9], on CYP2C9 [10], on CYP1A2 [11], on CYP3A4 [12], on CYP2D6 [13] and at CYP3A4 [14] was below 41% throughout. In addition, the figures for the pKb in data set [7] and in data set [8] were 6.7 and 7.1, respectively.

For `O=C(c1nc(C(F)(F)F)ccc1-c1ncccn1)N1CC2(CC2)C[C@H]1CNc1ccc(C(F)(F)F)cn1`, the inhibition at 3 µM on CYP2C19 [9], at CYP2C9 [10], at CYP1A2 [11], on CYP3A4 [12], on CYP2D6 [13] and on CYP3A4 [14] was below 39% each time. Also, the pKb in data set [7] was found to be 6.7; in data set [8], 5.

Regarding `Cc1ccc(-c2ncccn2)c(C(=O)N2CC3(CC3)C[C@H]2CNc2cc(C(F)(F)F)ccn2)c1`, the inhibition at 1 µM on CYP2C9 [1], at CYP2C19 [2], at CYP1A2 [3], on CYP2D6 [4], on CYP3A4 [5] and on CYP3A4 [6] was below 72% throughout. Also, the pKb turned out to be 7.3 in data set [7] and 7.8 in [8].

Turning to `Cc1ccc(-n2nccn2)c(C(=O)N2CC3(CC3)C[C@H]2CNc2ccc(Cl)cn2)c1`, the pKb in data set [7] is 8.1; in data set [8], below 5.

On to `Cc1ccc(-n2nccn2)c(C(=O)N2CCC3(CC3)C[C@H]2CNc2cccc(C)n2)c1`, for which the pKb in data set [7] was 8.2; in data set [8], below 5.

As to `O=C(c1nc(OC(F)(F)F)ccc1-c1ncccn1)N1CC2(CC2)C[C@H]1CNc1ccc(C(F)(F)F)cn1`, the inhibition at 3 µM on CYP2C19 [9], on CYP2C9 [10], on CYP1A2 [11], at CYP3A4 [12], at CYP2D6 [13] and on CYP3A4 [14] was below 58% throughout. The pKb in data set [7] is 7; in [8], 6.9.

For the compound `Cc1ccc(-c2nccs2)c(C(=O)N2CC3(CC3)C[C@H]2CNc2ccc(C(F)(F)F)cn2)n1`, the inhibition at 3 µM on CYP2C19 [9], on CYP2C9 [10], at CYP1A2 [11], at CYP3A4 [12], on CYP2D6 [13] and at CYP3A4 [14] was below 89% throughout. Besides, the results for the pKb in data set [7] and in data set [8] were 8.6 and 8, respectively.

For `Cc1nc(C(=O)N2CCC3(CC3)C[C@H]2CNc2ccc(C(F)(F)F)cn2)c(-c2ccccc2)s1`, the figures for the pKb in data set [7] and in data set [8] were 7.7 and below 5, respectively.

For `N#Cc1ccc(-c2ncccn2)c(C(=O)N2CC3(CC3)C[C@H]2CNc2ccc(C(F)(F)F)cn2)c1`, the inhibition at 3 µM on CYP2C19 [9], on CYP2C9 [10], at CYP1A2 [11], at CYP3A4 [12], on CYP2D6 [13] and at CYP3A4 [14] was below 32% throughout. The figures for the pKb in [7] and in data set [8] were 8 and 8.1, respectively.

`Cc1cnn(-c2ccc(C)nc2C(=O)N2CC3(CC3)C[C@H]2CNc2ccc(C(F)(F)F)cn2)c1`: the inhibition at 3 µM at CYP2C19 [9], at CYP2C9 [10], at CYP1A2 [11], at CYP3A4 [12], on CYP2D6 [13] and at CYP3A4 [14] was below 85% each time. For the same compound, the results for the pKb in [7] and in data set [8] were 8.9 and 8.3, respectively.

As to `Cc1nc(C(=O)N2CCC3(CC3)C[C@H]2CNc2ccc(Cl)cn2)c(-c2ccccc2)s1`, the negative-log Kb (pKb) was 7.9 in [7] and below 5 in [8].

Take `Cc1cccc(NC[C@@H]2CC3(CC3)CN2C(=O)c2nc(C)sc2-c2ccccc2)n1`: the pKb is 7.3 in [7] and 7.6 in data set [8].

Take `Cc1ccc(-c2ncccn2)c(C(=O)N2CC3(CC3)C[C@H]2CNc2ccc(C(F)(F)F)cn2)c1`: the pKb is 8.7 in [7] and 6.6 in data set [8].

As for `Cc1ccc(-n2nccn2)c(C(=O)N2CCC3(CC3)C[C@H]2CNc2ccc(Cl)cn2)c1`, the pKb in [7] was 7.5; in data set [8], below 5.

`O=C(c1cc(Cl)ccc1-c1ncccn1)N1CC2(CC2)C[C@H]1CNc1ccc(C(F)(F)F)cn1`: the inhibition at 3 µM on CYP2C19 [9], at CYP2C9 [10], at CYP1A2 [11], on CYP3A4 [12], on CYP2D6 [13] and at CYP3A4 [14] was below 22% each time. Also, the pKb is 8.1 in [7] and 7.2 in data set [8].

Consider `Cc1nc(C(=O)N2CC3(CC3)C[C@H]2CNc2ccc(Cl)cn2)c(-c2ccccc2)s1`, for which the pKb in data set [7] amounted to 8.3; in data set [8], 7.1.

With `O=C(c1ncccc1-c1ncccn1)N1CC2(CC2)C[C@H]1CNc1ccc(C(F)(F)F)cn1`, the inhibition at 3 µM at CYP2C19 [9], at CYP2C9 [10], at CYP1A2 [11], at CYP3A4 [12], on CYP2D6 [13] and on CYP3A4 [14] was below 47% throughout. Besides, the pKb in data set [7] came out at 7.7; in data set [8], 5.

As to `Cc1ccc(OCc2ccccc2)c(C(=O)N2CC3(CC3)C[C@H]2CNc2ccc(C(F)(F)F)cn2)n1`, the inhibition at 3 µM on CYP2C19 [9], on CYP2C9 [10], at CYP1A2 [11], on CYP3A4 [12], on CYP2D6 [13] and on CYP3A4 [14] was below 71% each time. Also, the pKb in data set [7] and in data set [8] was 8.6 throughout.

Take `Cc1ccnc(NC[C@@H]2CC3(CC3)CN2C(=O)c2nc(C)sc2-c2ccccc2)n1`: the pKb in data set [7] stood at 6.1; in [8], 7.

For the origin of these results see ChEMBL document CHEMBL2380240, “Discovery, synthesis, selectivity modulation and DMPK characterization of 5-azaspiro[2.4]heptanes as potent orexin receptor antagonists” (Bioorg Med Chem Lett, 2013).
